Activity calls are given as the source filed them. The rule behind the calls is not given here.
Legend:
[1] = tested on: LX-2; test: Anti-hepatic fibrosis activity in human LX2 cells assessed as inhibition of TGFbeta1-induced alpha-SMA expression at 20 to 40 uM measured after 48 hrs by western blot analysis; type: functional, cell-based; conditions: dose 20-40 µM
[2] = tested on: LX2; test: Inhibition of TGF-beta1/Smad2/3 signaling in TGF-beta1-stimulated human LX-2 cells assessed as reduction in Smad2 phosphorylation at 20 to 40 uM by western blot analysis; type: cell-based; conditions: dose 20-40 µM
[3] = tested on: LX-2; test: Anti-hepatic fibrosis activity in human LX2 cells assessed as inhibition of TGFbeta1-induced fibronectin expression measured after 48 hrs by immunofluorescence analysis; type: functional, cell-based; conditions: dose 20-40 µM
[4] = tested on: LX-2; test: Anti-hepatic fibrosis activity in human LX2 cells assessed as inhibition of TGFbeta1-induced collagen I expression at 20 to 40 uM measured after 48 hrs by western blot analysis; type: functional, cell-based; conditions: dose 20-40 µM
[5] = tested on: LX2; test: Inhibition of TGF-beta1/Smad2/3 signaling in TGF-beta1-stimulated human LX-2 cells assessed as reduction in Smad2/3 translocation from cytoplasm to nucleus at 40 uM by DAPI staining based fluorescence analysis; type: cell-based
[6] = Cytotoxicity against human LX2 cells at 20 to 40 uM; type: toxicity, cell-based; conditions: lx-2, 40 µM, dose 20-40 µM
[7] = tested on: LX2; test: Inhibition of TGF-beta1/Smad2/3 signaling in TGF-beta1-stimulated human LX-2 cells assessed as reduction in Smad3 phosphorylation at 20 to 40 uM by western blot analysis; type: cell-based; conditions: dose 20-40 µM

COC(=O)C1=CC[C@H]2[C@@]3(CC[C@@H](C)[C@]24C[C@@H](c2occc2[C@H]2C[C@@]56[C@H](O2)O[C@]2(CC[C@H]5C)C(C(=O)OC)=CCC[C@H]62)c2ccoc2[C@@H]4O3)C1
Activity [1]: Active
inhibition [2]: Active
Activity [3]: Dose-Dependent Effect
Activity [4]: Active
inhibition [5]: Active
Activity [6]: Non-Toxic
inhibition [7]: Active
